In patent US12085534B2, “Multiplexable super-resolution force spectroscopy using ultrasound methods and magnetic detection” (University of Houston System, priority 2018, dated 2024):

System: 11-bp DNA: ds(CCAAT CGA CCC)
Test: SURFS force spectrum of drug-bound DNA duplex (dissociation voltage)
Assay type: binding
Settings: daunomycin-11-bp DNA vs 12-bp DNA
Method: A piezo plate was placed on a piece of rubber. On top of the piezo, a water reservoir was constructed. The sample was mounted on a glass rod for scanning. The bottom of the sample, which contains the immobilized molecular system, makes contact with the water surface prior to ultrasound application. The water level was carefully monitored to be constant during experiment. […] A DNA duplex with 12-basepair (bp) was used to calculate the force resolution. The dissociation voltage was determined to be 0.204 V on the function generator, with ±0.001 V resolution. […] Because the acoustic radiation force is proportional to the ultrasound power, or V^2, the force resolution can be calculated as δF=(2δV/V)*F=(2*0.001/0.204)*45=0.5 pN (1)
In FIG. 4a, the force spectra of 12-bp DNA and daunomycin bound 11-bp DNA are compared. The two dissociation voltages were well distinguished, with the former at 0.204 V and the latter at 0.226 V. However, previous techniques of the prior art cannot distinguish the two forces, which are 45^±2 and 48^±2 pN respectively.

## COc1cccc2c1C(=O)c1c(O)c3c(c(O)c1C2=O)C[C@@](O)(C(C)=O)C[C@@H]3O[C@H]1C[C@H](N)[C@H](O)[C@H](C)O1 [daunomycin]
  binding strength compared with 12-bp DNA: stronger than 12-bp DNA
